Patent publication EP0013144A1, “Substituted diphenylamine derivatives, compositions and herbicidal uses thereof, and processes for their preparation” (ICI AUSTRALIA LIMITED, priority 1978, dated 1980)

Key:
Assay type in all cases: in vivo
Ipomea [1] = assay: Pre-emergence herbicidal activity (Example 31); conditions: after three weeks
Procedure, shortened: (§1)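 Visual damage score at three weeks: 0 = 0–25% damage, 3 = 75–99% kill, 3+ = 100% kill. Soil boxes with seeds sown 2 cm deep were sprayed before emergence with water-diluted emulsifiable concentrate or suspension, then grown in a glasshouse alongside unsprayed controls.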

Sunflower = assay: Pre-emergence herbicidal activity (Example 31); conditions: after three weeks
Procedure, shortened: as §1

Wild Oats [2] = assay: Pre-emergence herbicidal activity (Example 31); conditions: after three weeks
Procedure, shortened: as §1

Mustard = assay: Pre-emergence herbicidal activity (Example 31); conditions: after three weeks
Procedure, shortened: as §1

Japanese millet [3] = assay: Pre-emergence herbicidal activity (Example 31); conditions: after three weeks
Procedure, shortened: as §1

Digitaria sanguinalis = assay: Selective herbicidal activity, young pot plants (Example 35); conditions: weed; post-emergence; 0.08 kg/ha; after 20 days; mean of triplicate
Protocol: (§2) The compounds were formulated for test by mixing an appropriate amount with 5 ml of an emulsion prepared by diluting 160 ml of a solution containing 21.8 g per litre of "Span" 80 and 78.2 g per litre of "Tween" 20 in methylcyclohexanone to 500 ml with water. "Span" 80 is a Trade Mark for a surface-active agent comprising sorbitan monolaurate. "Tween" 20 is a Trade Mark for a surface-active agent comprising a condensate of sorbitan monolaurate with 20 molar proportions of ethylene oxide. Each 5 ml emulsion containing a test compound was then diluted to 40 ml with water and sprayed on to young pot plants (post-emergence test) of the species named in Table 7 below. Damage to test plants was assessed after 20 days on a scale of 0 to 9 whereo 0 is 0 to 10% and 9 is 90 to 100% kill. The tests were carried out in triplicate and the mean results are recorded in Table 7 below.

Sorghum halepense [4] = assay: as above; conditions: weed; post-emergence; 0.08 kg/ha; after 20 days; mean of triplicate
Protocol: as §2

Soyabean (Amsoy) = assay: as above; conditions: crop; post-emergence; 0.08 kg/ha; after 20 days; mean of triplicate
Protocol: as §2

Echinochloa crus-galli = assay: as above; conditions: weed; post-emergence; 0.08 kg/ha; after 20 days; mean of triplicate
Protocol: as §2

Setaria viridis = assay: as above; conditions: weed; post-emergence; 0.08 kg/ha; after 20 days; mean of triplicate
Protocol: as §2

Cotton (Deltapine) = assay: as above; conditions: crop; post-emergence; 0.08 kg/ha; after 20 days; mean of triplicate
Protocol: as §2

Ipomea [5] = assay: Post-emergence herbicidal activity (Example 32); conditions: 3 weeks after spraying
Procedure, shortened: (§3)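 Compounds were formulated as emulsifiable concentrates in toluene with surfactants (oils, waxy solids) or ball-milled aqueous suspensions (crystalline solids), then diluted with water. Glasshouse seedlings in soil, grown to about 10 to 12.5 cm, were sprayed. Damage was scored visually after 3 weeks against untreated controls on a 0–3 scale (3+ = 100% kill).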

Wild Oats [6] = assay: Post-emergence herbicidal activity (Example 32); conditions: 3 weeks after spraying
Procedure, shortened: as §3

Ryegrass [7] = assay: Post-emergence herbicidal activity (Example 32); conditions: 3 weeks after spraying
Procedure, shortened: as §3

Japanese millet [8] = assay: Post-emergence herbicidal activity (Example 32); conditions: 3 weeks after spraying
Procedure, shortened: as §3

Wheat [9] = assay: Pre-emergence herbicidal activity (Example 31); design: key: 0-3 scale: 0 = 0-25% damage, 3 = 75-99% kill, 3+ = 100% kill; conditions: 1 kg/ha, after three weeks
Procedure, shortened: as §1

Ryegrass [10] = assay: Pre-emergence herbicidal activity (Example 31); design: key: 0-3 scale: 0 = 0-25% damage, 3 = 75-99% kill, 3+ = 100% kill; conditions: after three weeks
Procedure, shortened: as §1

Wheat [11] = assay: Post-emergence herbicidal activity (Example 32); design: key: 0-3 scale: 0 = 0-25% damage, 3 = 75-99% kill, 3+ = 100% kill; conditions: 3 weeks after spraying
Procedure, shortened: as §3

Setaria aviceps = assay: Selective herbicidal activity, seed boxes (Example 34); conditions: weed; 0.15 kg/ha; sprayed on one week old seedlings; 29 days after spraying; triplicate
From the text: (§4) The seeds of the test species were sprinkled onto . the surface of soil in seed boxes and covered with a thin layer of sand. The boxes were lightly watered with an overhead spray and placed in a glasshouse for one week to permit germination of the seeds and plant growth to a height of 4 to 5 inches. […] For comparison purposes at least one box containing one week old seedlings was sprayed lightly with water only. After spraying the boxes were returned to the glasshouse for a further 29 days after which the effect of the treatment was visually assessed.

Sorghum halepense [12] = assay: as above; conditions: weed; 0.15 kg/ha; sprayed on one week old seedlings; 29 days after spraying; triplicate
From the text: as §4

Soyabean = assay: as above; conditions: crop; 1.5 kg/ha; sprayed on one week old seedlings; 29 days after spraying; triplicate
From the text: as §4

Annual Rye Grass = assay: as above; conditions: weed; 0.15 kg/ha; sprayed on one week old seedlings; 29 days after spraying; triplicate
From the text: as §4

Wild Oats [13] = assay: as above; conditions: weed; 0.15 kg/ha; sprayed on one week old seedlings; 29 days after spraying; triplicate
From the text: as §4

Japanese millet [14] = assay: as above; conditions: weed; 0.15 kg/ha; sprayed on one week old seedlings; 29 days after spraying; triplicate
From the text: as §4

Cotton = assay: as above; conditions: crop; 1.5 kg/ha; sprayed on one week old seedlings; 29 days after spraying; triplicate
From the text: as §4

COC(=O)C(C)Oc1ccc(Nc2ccc(C(F)(F)F)cc2[N+](=O)[O-])cc1 (stereo not drawn) [Compound 21, Methyl 2-[4-(2-nitro-4-trifluoromethylanilino)phenoxy]-propionate]
damage to plants, Ip (Ipomea [1]; 0.5 kg/ha): 0 (0 represents from 0 to 25% damage) | damage to plants, Ip (Ipomea [1]; 1 kg/ha): 0 (0 represents from 0 to 25% damage) | damage to plants, Ip (Ipomea [1]; 5 kg/ha): 0 (0 represents from 0 to 25% damage) | damage to plants, Sf (Sunflower; 0.5 kg/ha): 0 (0 represents from 0 to 25% damage) | damage to plants, Sf (Sunflower; 1 kg/ha): 0 (0 represents from 0 to 25% damage) | damage to plants, Sf (Sunflower; 5 kg/ha): 0 (0 represents from 0 to 25% damage) | damage to plants, Ot (Wild Oats [2]; 0.5 kg/ha): 3 (3 represents 75 to 99% kill) | damage to plants, Ot (Wild Oats [2]; 1 kg/ha): 3+ (3+ represents 100% kill) | damage to plants, Ot (Wild Oats [2]; 5 kg/ha): 3+ (3+ represents 100% kill) | damage to plants, Ms (Mustard; 0.5 kg/ha): 0 (0 represents from 0 to 25% damage) | damage to plants, Ms (Mustard; 1 kg/ha): 0 (0 represents from 0 to 25% damage) | damage to plants, Ms (Mustard; 5 kg/ha): 0 (0 represents from 0 to 25% damage) | damage to plants, Jm (Japanese millet [3]; 0.5 kg/ha): 3+ (3+ represents 100% kill) | damage to plants, Jm (Japanese millet [3]; 1 kg/ha): 3+ (3+ represents 100% kill) | damage to plants, Jm (Japanese millet [3]; 5 kg/ha): 3+ (3+ represents 100% kill) | damage to test plants, Dg (Digitaria sanguinalis): 5 | damage to test plants, Sh (Sorghum halepense [4]): 9 (9 is 90 to 100% kill) | damage to test plants, Sy (Soyabean (Amsoy)): 0 (0 is 0 to 10%) | damage to test plants, Ec (Echinochloa crus-galli): 5 | damage to test plants, St (Setaria viridis): 8 | damage to test plants, Ct (Cotton (Deltapine)): 0 (0 is 0 to 10%) | damage to plants, Ip (Ipomea [5]; 1 kg/ha): 0 (0 represents 0 to 25% damage) | damage to plants, Ip (Ipomea [5]; 5 kg/ha): 2 | damage to plants, Ot (Wild Oats [6]; 1 kg/ha): 3 (3 represents 75 to 99% kill) | damage to plants, Ot (Wild Oats [6]; 5 kg/ha): 3+ (3+ represents 100% kill) | damage to plants, Rg (Ryegrass [7]; 1 kg/ha): 3+ (3+ represents 100% kill) | damage to plants, Rg (Ryegrass [7]; 5 kg/ha): 3+ (3+ represents 100% kill) | damage to plants, Jm (Japanese millet [8]; 1 kg/ha): 3+ (3+ represents 100% kill) | damage to plants, Jm (Japanese millet [8]; 5 kg/ha): 3+ (3+ represents 100% kill) | damage to plants, Wh (Wheat [9]): 2 | damage to plants, Rg (Ryegrass [10]; 0.5 kg/ha): 3+ (3+ represents 100% kill) | damage to plants, Rg (Ryegrass [10]; 1 kg/ha): 3+ (3+ represents 100% kill) | damage to plants, Rg (Ryegrass [10]; 5 kg/ha): 3+ (3+ represents 100% kill) | damage to plants, Wh (Wheat [11]; 1 kg/ha): 3 (3 represents 75 to 99% kill) | damage to plants, Wh (Wheat [11]; 5 kg/ha): 3+ (3+ represents 100% kill)

CC(Oc1ccc(Nc2ccc(C(F)(F)F)cc2[N+](=O)[O-])cc1)C(=O)[O-].[Na+] (stereo not drawn) [Compound 65, 2-[4-(2-Nitro-4-trifluoromethylanilino)phenoxy]-propionic acid sodium salt]
damage to test plants, Dg (Digitaria sanguinalis): 3 | damage to test plants, Sh (Sorghum halepense [4]): 8 | damage to test plants, Sy (Soyabean (Amsoy)): 0 (0 is 0 to 10%) | damage to test plants, Ec (Echinochloa crus-galli): 9 (9 is 90 to 100% kill) | damage to test plants, St (Setaria viridis): 2 | damage to test plants, Ct (Cotton (Deltapine)): 0 (0 is 0 to 10%) | percentage damage, St (Setaria aviceps): 50 percentage | percentage damage, Sh (Sorghum halepense [12]): 80 percentage | percentage damage, Sb (Soyabean): 0 percentage | percentage damage, Rg (Annual Rye Grass): 35 percentage | percentage damage, Ot (Wild Oats [13]): 58 percentage | percentage damage, Jm (Japanese millet [14]): 100 percentage | percentage damage, Ct (Cotton): 0 percentage
